Results reported in patent publication US9428536B2, “Immunostimulatory G, U-containing oligoribonucleotides” (Zoetis Belgium SA, priority 2002, dated 2016).
Oligonucleotides are written 5' to 3', each unit as a sugar letter and its base; * is a phosphorothioate linkage, no mark a phosphodiester; rarer units and linkages stand in square brackets, end groups in braces. Plain capitals give the bases only. d = 2'-deoxy (DNA); r = 2'-OH (RNA)

Key:
human TLR7 = target: T1, human TLR7 (Homo sapiens, UniProt Q9NYK1); test: NF-κB luciferase reporter in 293 HEK cells transfected with human TLR7; assay type: cell-based; details: for human TLR7 response to modified guanosine ribonucleosides: FIG. 18
T1 construct: All full-length TLR fragments were cloned into pGEM-T Easy vector; expressed in transfected cells; host or cells: 293 HEK cells (ATCC), transient electroporation with pcDNA3.1(-) TLR expression plasmid
T1 sequence (Q9NYK1 27-1049): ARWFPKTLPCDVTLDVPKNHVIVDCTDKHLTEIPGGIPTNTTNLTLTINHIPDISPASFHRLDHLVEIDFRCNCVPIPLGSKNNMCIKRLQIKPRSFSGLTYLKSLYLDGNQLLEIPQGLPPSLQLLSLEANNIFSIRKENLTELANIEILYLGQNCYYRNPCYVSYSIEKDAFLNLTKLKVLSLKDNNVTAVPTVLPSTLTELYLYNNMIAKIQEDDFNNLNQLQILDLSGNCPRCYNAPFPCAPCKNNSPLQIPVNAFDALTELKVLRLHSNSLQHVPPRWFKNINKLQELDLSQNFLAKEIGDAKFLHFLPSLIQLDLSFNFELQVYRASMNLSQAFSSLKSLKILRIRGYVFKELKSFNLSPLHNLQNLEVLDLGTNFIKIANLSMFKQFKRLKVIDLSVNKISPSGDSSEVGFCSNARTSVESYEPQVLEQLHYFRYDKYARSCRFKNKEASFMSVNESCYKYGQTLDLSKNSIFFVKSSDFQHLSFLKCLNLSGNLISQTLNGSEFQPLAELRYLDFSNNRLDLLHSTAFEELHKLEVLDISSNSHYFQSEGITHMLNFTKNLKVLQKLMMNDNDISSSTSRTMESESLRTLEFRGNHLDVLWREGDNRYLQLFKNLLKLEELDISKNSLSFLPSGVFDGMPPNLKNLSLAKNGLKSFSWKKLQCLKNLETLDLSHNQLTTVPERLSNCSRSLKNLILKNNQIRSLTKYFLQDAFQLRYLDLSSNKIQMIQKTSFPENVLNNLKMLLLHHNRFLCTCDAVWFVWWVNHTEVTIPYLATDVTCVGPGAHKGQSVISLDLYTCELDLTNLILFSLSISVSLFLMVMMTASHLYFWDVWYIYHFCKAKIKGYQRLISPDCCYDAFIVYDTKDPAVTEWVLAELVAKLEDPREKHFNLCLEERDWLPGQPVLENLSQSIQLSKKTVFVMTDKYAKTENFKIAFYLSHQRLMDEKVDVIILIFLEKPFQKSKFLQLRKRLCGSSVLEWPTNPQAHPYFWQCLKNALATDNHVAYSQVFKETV
Experimental: FIG. 12 depicts the responsiveness of human TLR7 and human TLR8 to ribonucleosides. It was determined that the response by human PBMC to RNA or RVC was mediated by TLR7 or TLR8 and further that the response could be driven by ribonucleosides only. Human 293 cells were either mock-transfected or transfected with human TLR7 or human TLR8 and monitored for responsiveness to ribonucleosides. The open reading frames of human TLR7 (hTLR7) and human TLR8 (hTLR8) were amplified by PCR from a cDNA library of human PBMC using the following primers pairs: for TLR7, 5′-[…]-3′ (SEQ ID NO:15) and 5′-[…]-3′ (SEQ ID NO:16); and for TLR8, 5′-[…]-3′ (SEQ ID NO:17) and 5′-[…]-3′ (SEQ ID NO:18). The sequence information for primer selection was obtained from Genbank accession numbers AF240467 and AF245703. All full-length TLR fragments were cloned into pGEM-T Easy vector (Promega, Mannheim, Germany), excised with NotI, cloned into the expression vector pcDNA 3.1(−) (Invitrogen, Karlsruhe, Germany) and sequenced. Sequences of the coding region of hTLR7 and hTLR8 correspond to the accession numbers AF240467 (SEQ ID NO:25) and AF245703, respectively (SEQ ID NO:29).
For monitoring transient NF-κB activation, 3×10^6 293 HEK cells (ATCC, VA, USA) were electroporated at 200 volt and 960 μF with 1 μg TLR expression plasmid, 20 ng NF-κB luciferase reporter-plasmid and 14 μg of pcDNA3.1(−) plasmid as carrier in 400 μl RPMI medium supplemented with 25% fetal bovine serum (FCS). Cells were seeded at 10^5 cells per well and after over night culture stimulated with R-848 (denoted in FIG. 12 as X; commercially synthesized by GLSynthesis Inc., Worcester, Mass., USA), RVCs or ribonucleosides for a further 7 hours. Stimulated cells were lysed using reporter lysis buffer (Promega, Mannheim, Germany), and lysate was assayed for luciferase activity using a Berthold luminometer (Wildbad, Germany).

human PBMC [1] = test: Human PBMC IL-6 secretion, ELISA; assay type: cell-based; details: Table 4, DNA:RNA conjugates; human PBMC overnight; including DOTAP
Experimental: (§1) Human PBMC were cultured overnight in the presence of added DNA:RNA conjugate, with and without DOTAP. Culture supernatants were harvested and human TNF-α, IL-6, IL-12 p40, IP-10, and IFN-α were measured by ELISA using matched antibody pairs from BD-Pharmingen according to the manufacturer's protocol.

human PBMC [2] = test: Human PBMC TNF-α secretion, ELISA; assay type: cell-based; details: for TNF-α max / EC50: Table 4, DNA:RNA conjugates, human PBMC overnight, including DOTAP; for EC50: read-out: TNF-α EC50
Experimental: Human peripheral blood mononuclear cells (PBMCs) were isolated from healthy donors, plated at 3×10^5 cells/well, stimulated in vitro with various test and control immunostimulatory agents for 16 hours, and then analyzed by enzyme-linked immunosorbent assay (ELISA) using matched antibody pairs from BD-Pharmingen for secreted cytokines IL-12 p40 and TNF-α, performed according to the manufacturer's protocol. Also included were certain negative controls, including medium alone and DOTAP (10 μg/200 μl culture well; “Liposomes”) alone. The control immunostimulatory agents included the imidazoquinolone R-848 (2 μg/ml), lipopolysaccharide (LPS; 1 μg/ml), Pam3Cys (5 μg/ml), poly IC (50 μg/ml), and CpG DNA (50 μg/ml). These are reported ligands for TLR7, TLR4, TLR2, TLR3, and TLR9, respectively. Test immunostimulatory agents included the following RNA molecules, each at 50 μg/ml, with and without DOTAP (10 μg total “with Liposomes” and “without Liposomes”, respectively): GUGUUUAC alone; GUAGGCAC alone; GUGUUUAC in combination with GUAGGCAC; GUAGGA; GAAGGCAC; CUAGGCAC; CUCGGCAC; and CCCCCCCC. These RNA oligonucleotides each contained a phosphorothioate linkage between the penultimate and 3′ terminal nucleoside.
The experiments described in the preceding example were repeated with varied concentrations of RNA oligonucleotides in order to assess the dose-response behavior of human PBMCs to G,U-containing RNA oligonucleotides of the invention. A total of 10, 3 or 1 μg RNA was added to 10 μg DOTAP and then added to the 200 μl culture wells. After 16 hours IL-12 p40 and TNF-α ELISAs were performed as described in Example 1.
In order to investigate the possibility of using cholesteryl ester-modified RNA oligomer in place of RNA oligomer plus cationic lipid, RNA oligomer GUGUGUGU was prepared with (R 1058) and without (R 1006) a 3′ cholesteryl ester modification. These two RNA oligomers with and without DOTAP, were added over a range of concentrations to overnight cultures of human PBMC. Culture supernatants were harvested, and human TNF-α, IL-12 p40, and IFN-α were measured by ELISA using matched antibody pairs from BD-Pharmingen according to the manufacturer's protocol.
(§2) RNA oligomers GUGUGUGU, GUGUGUG, GUGUGU, GUGUG, GUGU, GUG, and GU, with and without DOTAP, were added over a range of concentrations to overnight cultures of human PBMC. Culture supernatants were harvested, and human TNF-α, IL-12 p40, and IFN-α were measured by ELISA using matched antibody pairs from BD-Pharmingen according to the manufacturer's protocol.
as §2, with “oligomers,” for “oligomers GUGUGUGU, GUGUGUG, GUGUGU, GUGUG, GUGU, GUG, and GU,”
as §1
Human PBMC were cultured overnight in the presence of various concentrations (1, 3, and 10 μg/ml) of tRNA obtained from wheat germ, bovine, yeast, and E. coli sources, added to the culture medium with and without DOTAP. Culture supernatants were harvested and human TNF-α and IL-12 p40 were measured by ELISA using matched antibody pairs from BD-Pharmingen according to the manufacturer's protocol. […] In addition, E. coli tRNA at 3 and 10 μg/ml induced minor amounts of both cytokines even without DOTAP. […]
FIG. 10 depicts the responsiveness of human PBMC to stringent response factor (SRF). SRF is produced by rapidly growing bacteria (in this case Listeria monocytogenes) in rich media until their late log phase. The bacteria were pelleted and resuspended in an equal volume of PBS for 24 h. The mixture is centrifuged to remove the bacteria. […]

human PBMC [3] = test: Human PBMC IP-10 secretion, ELISA; assay type: cell-based; details: Table 4, DNA:RNA conjugates; human PBMC overnight; including DOTAP
Experimental: as §1

[4] = test system: wild type murine macrophages; test: Wild type murine macrophages in the presence of IFN-γ, IL-12 p40 ELISA; assay type: cell-based, mouse; details: FIG. 6 Panel A, 12 hours, RNA with DOTAP
Experimental: The following murine cells were isolated and incubated with various RNAs and other known TLR ligands in order to assess species-, cell type-, and signaling pathway-specificity: wild type macrophages in the presence of IFN-γ; MyD88-deficient macrophages in the presence of IFN-γ; J774 (mouse macrophage cell line); and RAW 264.7 (mouse macrophage cell line, e.g., ATCC TIB-71). Murine bone macrophages were generated from wild type or MyD88-deficient C57BL/6 mice by culturing bone marrow cells with 50 ng/ml M-CSF for 5 days. Cells were seeded at 25,000 cells/well and treated with 20 ng/ml IFN-γ for 16 hours. The murine macrophage cell lines RAW and J774 were seeded at 10,000 cells/well.
The following test and control agents were examined: R-848 (2 μg/ml), ODN 1668 (CpG DNA; 5′-[…]-3′; SEQ ID NO:7); LPS (1 μg/ml); poly IC (50 μg/ml); Pam3Cys (5 μg/ml); Ionomycin/TPA; the following RNA molecules, each with (“+Lipo”) and without DOTAP (10 μg/200 μl culture well): GUGUUUAC alone (RNA1); GUAGGCAC alone (RNA2); GUGUUUAC in combination with GUAGGCAC (RNA1/2); […] (RNA6; SEQ ID NO:8); […] (RNA9; SEQ ID NO:9); and the following DNA molecules, corresponding to RNA1, RNA2, and RNA1/2: GTGTTTAC alone (DNA1); GTAGGCAC alone (DNA2); and GTGTTTAC in combination with GTAGGCAC (DNA1/2). These RNA and DNA oligonucleotides each contained a phosphorothioate linkage between the penultimate and 3′ terminal nucleoside. RNA6 and RNA9 each contained in addition a phosphorothioate linkage between the penultimate and 5′ terminal nucleoside. RNA6 corresponds to a ribosomal RNA stem loop derived from Listeria monocytogenes. RNA9 corresponds to a stem loop derived from human immunodeficiency virus (HIV, an RNA retrovirus). The cells were cultured for 12 hours and supernatants were harvested. Murine IL-12 p40, IL-6, and TNF-α were measured by ELISA using matched antibody pairs from BD-Pharmingen according to the manufacturer's protocol.

Row | human TLR7 response to modified guanosine ribonucleosides (human TLR7) | Compound | EC50 (human PBMC [1]) [nM] | IL-6 max (human PBMC [1]) [pg/mL] | TNF-α max (human PBMC [2]) [pg/mL] | EC50 (human PBMC [2]) [nM] | EC50 (human PBMC [3]) [nM] | IP-10 max (human PBMC [3]) [pg/mL] | further results
1 | responded mildly | Nc1nc2c(nc(Br)n2[C@@H]2O[C@H](CO)[C@@H](O)[C@H]2O)c(=O)[nH]1 [8-bromo-guanosine, reference compound] | – | – | – | – | – | – | –
2 | – | dG*dG*dG*dG_dG_G*U*G*U*G*U*G*U (dG*dG*dG*dGdGrG*rU*rG*rU*rG*rU*rG*rU) [R 1061] | > 20000 | 10000 | 20000 | 4300 | 1100 | 180 | –
3 | – | 5′-TCCATGACGTTCCTGATGCT-3′ (CpG DNA, linkage chemistry not given here, further chemistry not given here) [ODN 1668] | – | – | – | – | – | – | IL-12 p40 secretion by wild type murine macrophages [4]: significant amounts
4 | – | G*U*G*U*G*U*G*U*dT*dT*dT*dT*dT*dT (rG*rU*rG*rU*rG*rU*rG*rU*dT*dT*dT*dT*dT*dT) [R 1062] | 400 | 28000 | 80000 | 300 | 100 | 400 | –
5 | responded mildly | Nc1nc2c(ncn2[C@H]2C[C@H](O)[C@@H](CO)O2)c(=O)[nH]1 [deoxy form of guanosine] | – | – | – | – | – | – | –
6 | responsive | Nc1nc2c(ncn2[C@@H]2O[C@H](CO)[C@@H](O)[C@H]2O)c(=O)[nH]1 [guanosine] | – | – | – | – | – | – | response of TLR7 transfectants (NF-κB luciferase) (human TLR7; FIG. 12, transient transfectants, 7 hours stimulation): responded; responsiveness of TLR7 to ribonucleosides and mixtures of two (human TLR7; FIG. 13): responded best; stimulation of PBMC to produce TNF (human PBMC [2]; Example 14, in the absence of vanadate): effective
7 | – | dT*dT*dT*dT*dT*G*U*G*U*G*U*G*U (dT*dT*dT*dT*dT*rG*rU*rG*rU*rG*rU*rG*rU) [R 1063] | 800 | 28000 | 60000 | 300 | 100 | 250 | –
